Experimental findings from patent US20130309209A1, “FORMATION OF HEMATOPOIETIC PROGENITOR CELLS FROM MESENCHYMAL STEM CELLS” (Center for Regenerative Medicine of Barcelona, priority 2010, published 2013) are described below.

Each structure is given as a SMILES string.

The test system of experiment [1] is CD34+ OE-MSC-derived cells. Nature of the experiment: Hematopoietic colony forming assays. The conditions noted are these: CD34+ cells accumulated during chronic inhibition of TGFβ. It is filed as cell-based, human. Here is the method:
Hematopoietic clonogenic assays were performed in 35-mm low adherent plastic dishes (Stem Cell Technologies, Vancouver, BC, Canada) using 1.1 ml/dish of methylcellulose semisolid medium (MethoCult H4434 classic, Stem Cell Technologies) according to the manufacturer's instructions. Briefly, enriched CD34+ OE-MSC-derived cells were sorted and immediately plated at various densities: 1.5×10^3/ml, 3×10^3/ml and 6×10^3/ml. All assays were performed in duplicate. Colony-forming units (CFU) and Burst-forming units (BFU) were scored after 7 to 14 days of incubation according to their colony morphology as erythroid (CFU-E and BFU-E), granulocyte, erythroid, macrophage, megakaryocyte (CFU-GEMM), granulocyte-macrophage (CFU-GM), and macrophage (CFU-M).

Experiment [2] relates to Human MSCs. Nature of the experiment: Real time PCR (RT-PCR) analysis of hematopoietic and pluripotency marker mRNA. It counts as cell-based. As for the experimental part: Total RNA was isolated using Trizol Reagent (Invitrogen) according to the manufacturer's recommendations. 1 μg of DNAse1 (invitrogen) treated total RNA was used for cDNA synthesis using the SuperScript II Reverse Transcriptase kit for RT-PCR (Invitrogen). Real-time PCR was performed using the SYBR-Green PCR Master mix (Applied Biosystems). The levels of expression of respective genes were normalized to corresponding GAPDH values and are shown as fold change relative to the value of the control sample. All the samples were done in triplicate. The sequences correspond to SEQ ID NOs:7-68, and are listed in order, i.e., SEQ ID NO:7 (OCT4 endogenous 5′ oligo), SEQ ID NO:8 (OCT4 endogenous 3′oligo), SEQ ID NO:9 (NANOG 5′ oligo), etc.
Background: Real-time PCR tracks product formation cycle by cycle.

The subject of experiment [3] is Human MSCs. Nature of the experiment: Western blotting of tyrosine phosphorylation of cellular proteins. It counts as cell-based. The settings on record: TGF beta inhibition added to standard transgeneration conditions. The source says: TGF signaling involves a series of serine/threonine phosphorylation events, and its regulation is related to the activity of the MAPK-MEK-ERK pathway, a receptor tyrosine kinase (RTK) activated pathway. Thus, in order to address potential crosstalk involving tyrosine phosphorylation-dependent pathways Applicants investigated the effect of Applicants' different protocols on tyrosine phosphorylation of multiple cellular proteins by western blotting.

The subject of experiment [4] is Human MSCs. Nature of the experiment: Flow cytometry surface staining (CD34, CD45, CD43, CD133) of MSCs undergoing hematopoietic transdetermination. It is filed as cell-based. An excerpt:
The following antibodies were used for flow cytometry and western blotting experiments respectively: mouse anti-human CD34-APC (130-046-703, Miltenyi), mouse anti-human CD45-FITC (130-080-202, Miltenyi), mouse anti-human CD133/2 (293C3)-PE (130-090-853, Miltenyi), mouse anti-human CD43-FITC (560978, BD biosciences), mouse APC isotype control (555751, BD biosciences), mouse FITC isotype control (555748, BD biosciences), The TGFβRI SB431542 (S4317, Sigma-Aldrich) and MEK/ERK U0126 (U120, Sigma-Aldrich) inhibitors were diluted in DMSO accordingly to the manufacturers' instruction and used at a final concentration of 25 and 10 μM respectively during the duration of the experiments with media changes every second day unless otherwise stated. Equal concentration of the solvent alone was used as a negative control.
Human OE-MSC and MSC-AT cells (passage 7) were infected (day 0) with pMX-based retroviruses by spinfection of the cells at 1850 rpm for 1 hour in the presence of polybrene (4 μg/ml). Cells were maintained in the retroviruses-containing media for 12 hours and then the media was removed and replaced by the cell-specific culture medium. Twenty four hours after the first infection (day 1), a second round of infection was performed. The day after (day 2), cells were maintained in their respective media for 24 hours before being switched to a Wicell media containing DMEM/F12 (Invitrogen) supplemented with 20% Knockout Serum Replacement (Invitrogen), 1 mM L-glutamine, 0.1 mM non-essential aminoacids, […] β-mercaptoethanol and 10 ng/ml bFGF.
Human MSCs undergoing hematopoietic transdetermination were harvested at the indicated time points. Cells were washed once with PBS and further incubated with the corresponding antibodies in the presence of FACS blocking buffer (1×PBS/10% FCS) for 1 hour on ice in the absence of light. After incubation, cells were washed three times with 1 ml FACS blocking buffer and resuspended in a total volume of 200 μl prior to analysis. A minimum of 10,000 living cells were analyzed.
2.5 μg of recombinant human Sox2-TAT (110-03T, Peprotech) was added to the culture media every 12 hours prior to analysis of transdetermination.
(In general: In flow cytometry, cells or beads pass a laser one at a time.)

Consider `NC(=O)c1ccc(-c2nc(-c3ccc4c(c3)OCO4)c(-c3ccccn3)[nH]2)cc1` [SB431542], for which the “multilineage potential of sorted CD34+ cells” value in experiment [1] is “retain multilineage potential”. For the same molecule, the “endogenous Sox2 and Oct4 expression” value in the experiment with Human MSCs [2] (chronic inhibition of TGFβ signaling alone (FIG. 4B)) is recorded as “sufficient to upregulate”. Moreover, the “HPC-related markers at the mRNA level” value with Human MSCs [2] (chronic inhibition of TGFβ signaling alone, days 2-7 (FIG. 5C)) was “significant upregulation”. The “early hematopoietic markers GATA2, Runx1, CD43 and CD41” value in the experiment with Human MSCs [2] (inhibition of TGF signaling) is given as “downregulation”. Besides, the “endogenous Sox2 expression” value in the experiment on Human MSCs [2] (inhibition of TGF signaling (Example 9)) is “downregulation”. For the same molecule, in the experiment on Human MSCs [3], the “tyrosine phosphorylation of cellular proteins” value is “further enhances”. Moreover, the “generation of CD34+ cells” value in the experiment with Human MSCs [4] (Sox2 transduction in combination with TGFβRI inhibitor (FIG. 4C)) was “does not impair”. Besides, in the experiment with Human MSCs [4] (Sox2 transduction in combination with TGFβRI inhibitor, days 2-8 (FIG. 4D)), the “newly generated CD45+ cells” value is “significant reduction”. Further, the “generation of CD34+CD45+ and CD45+ cell populations” value in the experiment with Human MSCs [4] (in combination with Sox2 transduction, 4 days of transdetermination (FIG. 5E)) is “significantly abolishes”. The “CD34+CD45+ cells” value with Human MSCs [4] (inhibition of the TGF beta pathway alone during ten days, compared to DMSO control, 25 μM) was “around 10%”. The “CD34+ cells” value in the experiment with Human MSCs [4] (inhibition of the TGFβ pathway, no Sox2 transduction, 25 μM) is listed as 10-25%; in the experiment on Human MSCs [4] (long-term inhibition of TGF beta pathway during a one month period in culture, compared to standard protocol), “up to 75%”.
With `N#CC(=C(/N)Sc1ccccc1N)/C(C#N)=C(\N)Sc1ccccc1N` [U0126], in the experiment on Human MSCs [4] (chronic inhibition of ERK alone, no ectopic Sox2, 10 μM), the “early CD34+ progenitors” value is recorded as “up to 35%”.
